According to patent US6569638B1, “Method for screening compounds for the treatment of neoplasia” (Cell Pathways, Inc, priority 2000, dated 2003):
Where two headings read alike, the source gives them in different places.

What was measured:
[1] = tested on: PKG in HCT116 colon cancer cells; experiment: PKG assay of drug-treated cell lysates; format: cell-based, human; details: HCT116 cells (β-catenin mutation, no APC mutation)
Source text: To test the effect of cGMP-specific PDE inhibition on neoplasia containing the β-catenin mutation, HCT116 colon cancer cells were employed. HCT116 is known to contain the β-catenin mutation, but is known not to contain the APC mutation.
The same procedure is used to grow the HCT116 cells as is used in the SW480 procedure described above. In this experiment, only exisulind and controls were used.

[2] = format: in vivo; details: for body weight gain: rat, in vivo
Source text: Thus, on a single-dose basis, Compound B is not acutely toxic.

[3] = tested on: aberrant crypt foci (ACF); experiment: Azoxymethane-induced aberrant crypt foci model; format: in vivo, male Fisher 344 rats; details: for % Control (ACF/colon) / Mean ACF/colon (+SE): free base; for Mean ACF/colon (+SE): 5 weeks
Description: The growth inhibition IC50 value obtained for Compound B was 0.7 μM in the SW-480 cell line. […] This established rodent model of azoxymethane (“AOM”)-induced carcinogenesis was used to assess the effects of Compound B (free base and salt) on colon cancer development in vivo. ACF are precursors to colonic tumors, and ACF inhibition is predictive of chemo-preventive efficacy.
In the rats in this experiment, ACF initiation was achieved by two consecutive weekly injections of the carcinogen. Compound B was administered one week prior to ACF initiation and for the duration of the experiment. ACFs were scored after 5 weeks of treatment. Compound B was administered orally to male Fisher 344 rats in the rat chow. Daily food consumption (mg/kg body weight) varied over the course of the study, and therefore Compound B dose was expressed a grams per kg of diet to provide a basis of comparison between doses. […] The experimental groups gained less weight than the controls, which was indicative of bioavailability. However, the weight differences were less than 10% and not considered to affect ACF formation.

| SMILES | PKG activity relative to control [1] | body weight gain ([2]; ip, 1000 mg/kg) | body weight gain ([2]; po, 4000 mg/kg) | intraperitoneal LD50 ([2]; rats) | oral LD50 ([2]; rats) | signs of toxicity ([2]; rats, single oral doses up to and including 2000 mg/kg, 0.5% carboxy-methylcellulose vehicle) | % Control (ACF/colon) ([3]; 0.5 g/kg diet) | Mean ACF/colon (+SE) ([3]; 0.5 g/kg diet) | % Control (ACF/colon) ([3]; 1 g/kg diet) | Mean ACF/colon (+SE) ([3]; 1 g/kg diet) | % Control (ACF/colon) ([3]; 1.5 g/kg diet) | Mean ACF/colon (+SE) ([3]; 1.5 g/kg diet) | % Control (ACF/colon) ([3]; 2.0 g/kg diet) | Mean ACF/colon (+SE) ([3]; 2.0 g/kg diet) | body weight difference versus controls ([3]; rats, Compound B in rat chow, over the experiment) |
| --- | --- | --- | --- | --- | --- | --- | --- | --- | --- | --- | --- | --- | --- | --- | --- |
| CC1=C(CC(=O)O)c2cc(F)ccc2/C1=C\c1ccc(S(C)(=O)=O)cc1 [exisulind, 5-fluoro-2-methyl-1-(p-methylsulfonylbenzylidene)-3-indenylacetic acid] | phosphorylated to a greater extent than the corresponding controls |  |  |  |  |  |  |  |  |  |  |  |  |  |  |
| CC1=C(CC(=O)NCc2ccccc2)c2cc(F)ccc2/C1=C\c1ccncc1.Cl [Compound B, (Z)-5-fluoro-2-methyl-(4-pyridylidene)-3-(N-benzyl)indenylacetamide hydrochloride] |  | reduced body weight gain | body weight gains were slightly reduced | greater than 1000 mg/kg | > 4000 mg/kg | no observable signs of toxicity | 100% | 149 ± 14 | 75% | 111 ± 9 | 89% | 132 ± 4 | 72% | 107 ± 15 | less than 10% |
